The subject of the assay is BDF1 mice, P388/VCR leukemia ip, median survival T/C. The experiment in a line: NCI In Vivo Anticancer Drug Screen. Data for tumor model P388 Leukemia resistant to Vincristine; NSC 67574 (intraperitoneal) in B6D2F1 (BDF1) mice. Particulars: endpoint: median survival time, higher = longer survival. How it is done:
The antitumor activity of compounds was measured in mice bearing transplantable tumors. Survival or tumor size were measured and the results are expressed as the measurement made in the treated group (T) divided by the measurement made in the vehicle treated control group (C). The tumor model used in this assay is P388 Leukemia resistant to Vincristine; NSC 67574 (intraperitoneal) in B6D2F1 (BDF1) mice

[1] abbreviates: dose: 15.0 mg/kg/injection, schedule: Q01DX010 (ip), vehicle: saline.
Setting [2] is: dose: 30.0 mg/kg/injection, schedule: Q01DX010 (ip), vehicle: saline.
Where [3] appears, read: dose: 60.0 mg/kg/injection, schedule: Q01DX010 (ip), vehicle: saline.
The mark [4] stands for this setting: dose: 3.13 mg/kg/injection, schedule: Q01DX010 (ip), vehicle: saline.
Where [5] appears, read: dose: 10.0 mg/kg/injection, schedule: Q01DX010 (ip), vehicle: saline.
The mark [6] stands for this setting: dose: 20.0 mg/kg/injection, schedule: Q01DX010 (ip), vehicle: saline.
Where [7] appears, read: dose: 40.0 mg/kg/injection, schedule: Q01DX010 (ip), vehicle: saline.
[8] abbreviates: dose: 12.0 mg/kg/injection, schedule: Q01DX010 (ip), vehicle: saline.
[9] abbreviates: dose: 18.0 mg/kg/injection, schedule: Q01DX010 (ip), vehicle: saline.

“And” between values parts separate entries of the source, which are not always exact repeats. Identical values can stand only once. Toxic doses and inconclusive results are not listed.

Regarding `O=C(Nc1ccc(C2=NCCN2)cc1)c1ccc(C(=O)Nc2ccc(C3=NCCN3)cc2)cc1`, the T/C is 156 % of control (dose: 112.0 mg/kg/injection, schedule: Q01DX010 (ip), vehicle: saline); 173 % of control (dose: 167.0 mg/kg/injection, schedule: Q01DX010 (ip), vehicle: saline); 178 % of control (dose: 250.0 mg/kg/injection, schedule: Q01DX010 (ip), vehicle: saline).

As to `CCCCn1cnc2c(=S)nc[nH]c21`, the T/C (dose: 16.0 mg/kg/injection, schedule: Q01DX010 (ip), vehicle: saline) is 107 % of control; the T/C (dose: 32.0 mg/kg/injection, schedule: Q01DX010 (ip), vehicle: saline) was 96 % of control; the T/C (dose: 64.0 mg/kg/injection, schedule: Q01DX010 (ip), vehicle: saline) is 100 % of control.

In the case of `C[N+](C)(C)c1ncnc2nc[nH]c12`, the T/C by setting is: under setting [1], 100 % of control; under setting [2], 120 % of control; under setting [3], 113 % of control; (dose: 120.0 mg/kg/injection, schedule: Q01DX010 (ip), vehicle: saline) 116 % of control.

In the case of `O=C(O)CCCc1ccc(N(CCCl)CCCl)cc1`, the T/C is 92 % of control and 104 % of control under setting [4]; 100 % of control (dose: 6.25 mg/kg/injection, schedule: Q01DX010 (ip), vehicle: saline); 152 % of control (dose: 12.5 mg/kg/injection, schedule: Q01DX010 (ip), vehicle: saline).

For the molecule `[I][Hg][CH2]C1COC([CH2][Hg][I])CO1` (configuration not stated), the T/C was 88 % of control (dose: 0.78 mg/kg/injection, schedule: Q01DX010 (ip), vehicle: saline); 103 % of control (dose: 1.56 mg/kg/injection, schedule: Q01DX010 (ip), vehicle: saline); 111 % of control under setting [4].

With `CS(=O)(=O)OCCN(CCOS(C)(=O)=O)c1ccc(N=O)cc1`, the T/C runs as follows: (dose: 0.5 mg/kg/injection, schedule: Q01DX010 (ip), vehicle: saline) 150 % of control; (dose: 1.0 mg/kg/injection, schedule: Q01DX010 (ip), vehicle: saline) 150 % of control.

For the molecule `CCOC(N)=O`, under “dose: 500.0 mg/kg/injection, schedule: Q01DX010 (ip), vehicle: saline”, the T/C is 107 % of control and 119 % of control.

With `CC1CCOS(=O)O1` (configuration not stated), the T/C was 96 % of control under setting [5], 103 % of control under setting [6] and 103 % of control under setting [7].

`Clc1ncnc2nc[nH]c12`: the T/C reads like this: (dose: 7.5 mg/kg/injection, schedule: Q01DX010 (ip), vehicle: saline) 96 % of control and 119 % of control; under setting [1], 92 % of control and 107 % of control; under setting [2], 107 % of control; under setting [3], 92 % of control.

On to `CC(CN1CC(=O)NC(=O)C1)N1CC(=O)NC(=O)C1` (configuration not stated), for which the T/C (dose: 108.0 mg/kg/injection, schedule: Q04DX003 (ip), vehicle: Klucel (hydroxypropylcellulose) (HPC)) is 120 % of control; the T/C (dose: 240.0 mg/kg/injection, schedule: Q04DX003 (ip), vehicle: Klucel (hydroxypropylcellulose) (HPC)) was 151 % of control; the T/C (dose: 300.0 mg/kg/injection, schedule: Q04DX003 (ip), vehicle: alkali diluted with saline) is 174 % of control; the T/C (dose: 400.0 mg/kg/injection, schedule: Q04DX003 (ip), vehicle: Klucel (hydroxypropylcellulose) (HPC)) was 180 % of control; the T/C (dose: 500.0 mg/kg/injection, schedule: Q04DX003 (ip), vehicle: alkali diluted with saline) was 109 % of control.

In the case of `C[C@@H]1C[C@@H]([C@H](O)CC2CC(=O)NC(=O)C2)C(=O)[C@@H](C)C1`, the T/C reads like this: (dose: 5.0 mg/kg/injection, schedule: Q01DX010 (ip), vehicle: saline) 92 % of control and 108 % of control; under setting [5], 100 % of control and 104 % of control; under setting [6], 112 % of control and 116 % of control; under setting [7], 120 % of control and 124 % of control.

With `CN(C)c1nc(N(C)C)nc(N(C)C)n1`, the T/C (dose: 18.8 mg/kg/injection, schedule: Q01DX010 (ip), vehicle: saline) was 100 % of control; the T/C (dose: 37.5 mg/kg/injection, schedule: Q01DX010 (ip), vehicle: saline) is 100 % of control; the T/C (dose: 75.0 mg/kg/injection, schedule: Q01DX010 (ip), vehicle: saline) was 100 % of control; the T/C (dose: 150.0 mg/kg/injection, schedule: Q01DX010 (ip), vehicle: saline) is 104 % of control.

Turning to `O=C(Nc1ccc(C2=NCCN2)cc1)c1ccc(C(=O)Nc2ccc(C3=NCCN3)cc2)c([N+](=O)[O-])c1`, the T/C by setting is: (dose: 6.0 mg/kg/injection, schedule: Q01DX010 (ip), vehicle: saline) 103 % of control; (dose: 8.0 mg/kg/injection, schedule: Q01DX010 (ip), vehicle: saline) 114 % of control; under setting [8], 111 % of control; under setting [9], 104 % of control and 111 % of control.

For `O=C(Nc1ccc(C2=NCCN2)cc1)c1cc(Cl)cc(C(=O)Nc2ccc(C3=NCCN3)cc2)c1`, the T/C is 100 % of control (dose: 140.0 mg/kg/injection, schedule: Q01DX010 (ip), vehicle: saline); 109 % of control (dose: 210.0 mg/kg/injection, schedule: Q01DX010 (ip), vehicle: saline); 100 % of control (dose: 315.0 mg/kg/injection, schedule: Q01DX010 (ip), vehicle: saline).

With `Nc1nc(=S)c2[nH]cnc2[nH]1`, the T/C was 165 % of control (dose: 1.25 mg/kg/injection, schedule: Q01DX010 (ip), vehicle: other); 103 % of control and 107 % of control (dose: 5.0 mg/kg/injection, schedule: Q01DX010 (ip), vehicle: other).

For the molecule `CC1CN=C(c2ccc(NC(=O)c3cccc(C(=O)Nc4ccc(C5=NCC(C)N5)cc4)c3)cc2)N1` (configuration not stated), the T/C under setting [8] was 104 % of control; the T/C under setting [9] was 117 % of control; the T/C (dose: 27.0 mg/kg/injection, schedule: Q01DX010 (ip), vehicle: saline) is 104 % of control; the T/C under setting [7] is 108 % of control.

For the origin of these results see PubChem BioAssay AID336 (DTP/NCI, 2004).
